US20250136558A1, “PYRAZINE COMPOUNDS AS IRREVERSIBLE INHIBITORS OF FLT3” (BIOMEA FUSION, INC., priority 2021, published 2025)

Key:
MOLM-13 = assay: Proliferation inhibition (CellTiter-Glo) in MOLM-13 cells; format: cell-based; conditions: Homo sapiens, 96 h, MOLM-13 AML cells, heterozygous FLT3-ITD, IC50 (4 days)
How it was run: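 MOLM-13 human AML cells, heterozygous for FLT3-ITD, were grown in RPMI-1640 with 10% heat-inactivated FBS and 1% Pen-Strep. About 10,000 cells in 200 μL were seeded per well of 96-well plates. After 2 hours, compounds from DMSO stocks were dispensed at eight concentrations in duplicate, with 0.2% DMSO as the untreated control. Viability was read as CellTiter-Glo ATP luminescence, and IC50 was obtained from a four-parameter logistic fit.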

MV-4-11 = assay: Proliferation inhibition (CellTiter-Glo) in MV-4-11 cells; format: cell-based; conditions: Homo sapiens, MV4-11, 96 h, MV-4-11 AML cells, homozygous FLT3-ITD, IC50 (4 days)
How it was run: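 MV-4-11 human AML cells (homozygous FLT3-ITD) grown in RPMI-1640 with 10% heat-inactivated FBS and 1% Pen-Strep were seeded at about 10,000 cells per 200 μL in 96 well plates. Two hours later, compounds were dispensed at eight concentrations in duplicate. Viability was measured by CellTiter-Glo luminescence, and IC50 values came from four-parameter logistic non-linear regression against untreated cells (0.2% DMSO).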

K-562 = assay: Proliferation inhibition (CellTiter-Glo) in K-562 cells; format: cell-based; conditions: Homo sapiens, K562, 96 h, K-562 CML cells, no FLT3 mutations, IC50 (4 days)
How it was run: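 The CML line […] (ATCC: CRL-3343) was cultured in RPMI-1640 with 10% heat-inactivated FBS and 1% Pen-Strep at 37° C. Cells were seeded at about 10,000 per 200 μL in 96-well plates, and test compound was dispensed 2 hours later at eight concentrations in duplicate. Viability was measured as ATP luminescence with CellTiter-Glo. Untreated cells (0.2% DMSO) defined 100% proliferation, and IC50 values came from four-parameter logistic fits.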

[1] = system: quizartinib-resistant AML; conditions: Yamaura et al., 2018; cited from earlier work

## CCc1nc(C(N)=O)c(Nc2cc(F)cc(OCCCNC(=O)[C@H](C)N(C)C(=O)/C=C/CN(C)C)c2)nc1N(C)C [Compound 149, (S,E)-5-(dimethylamino)-3-((3-(3-(2-(4-(dimethylamino)-N-methylbut-2-enamido)propanamido)propoxy)-5-fluorophenyl)amino)-6-ethylpyrazine-2-carboxamide]
MOLM-13
  IC50: 1 to 10 nM
MV-4-11
  IC50: < 1 nM
K-562
  IC50: > 500 nM

## C=CC(=O)N(C)[C@@H](C)C(=O)NCC#Cc1cccc(Nc2nc(NC3CCOCC3)c(CC)nc2C(N)=O)c1 [Compound 17, (S)-6-Ethyl-3-((3-(3-(2-(N-methylacrylamido)propanamido)prop-1-yn-1-yl)phenyl)amino)-5-((tetrahydro-2H-pyran-4-yl)amino)pyrazine-2-carboxamide]
MOLM-13
  IC50: 1 to 10 nM
MV-4-11
  IC50: < 1 nM
K-562
  IC50: > 500 nM

## CCc1nc(C(N)=O)c(Nc2cccc(OCCCNC(=O)[C@H](C)N(C)C(=O)/C=C/CN(C)C)c2)nc1NC(C)C [Compound 124, (S,E)-3-((3-(3-(2-(4-(dimethylamino)-N-methylbut-2-enamido)propanamido)propoxy)phenyl)amino)-6-ethyl-5-(isopropylamino)pyrazine-2-carboxamide]
MOLM-13
  IC50: < 1 nM
MV-4-11
  IC50: 1 to 10 nM
K-562
  IC50: > 500 nM

## CCc1nc(C(N)=O)c(Nc2cccc(OC(C)CCNC(=O)[C@H](C)N(C)C(=O)/C=C/CN(C)C)c2)nc1NC1CCOCC1 (stereo partly drawn) [Compound 115, 3-[3-[3-[[(2S)-2-[[(E)-4-(dimethylamino)but-2-enoyl]-methyl-amino]propanoyl]amino]-1-methyl-propoxy]anilino]-6-ethyl-5-(tetrahydropyran-4-ylamino)pyrazine-2-carboxamide]
MOLM-13
  IC50: 1 to 10 nM
MV-4-11
  IC50: < 1 nM
K-562
  IC50: > 500 nM

## CCc1nc(C(N)=O)c(Nc2cccc(OCCCNC(=O)[C@H](C)N(C)C(=O)/C=C/CN(C)C)c2)nc1N(C)C(C)C [Compound 145, (S,E)-3-((3-(3-(2-(4-(dimethylamino)-N-methylbut-2-enamido)propanamido)propoxy)phenyl)amino)-6-ethyl-5-(isopropyl(methyl)amino)pyrazine-2-carboxamide]
MOLM-13
  IC50: 1 to 10 nM
MV-4-11
  IC50: < 1 nM
K-562
  IC50: > 500 nM

## CCCNc1nc(Nc2ccc(C#N)cc2)ncc1C#CCCCNC(=O)[C@H](C)N(C)C(=O)/C=C/CN(C)C [FF-10101]
[1]
  activity against quizartinib-resistant AML: demonstrated activity

## C[C@@H](C(=O)NCCCOc1cccc(Nc2nc(NC3CCOCC3)cnc2C(N)=O)c1)N(C)C(=O)/C=C/CN(C)C [Compound 130, (S,E)-3-((3-(3-(2-(4-(dimethylamino)-N-methylbut-2-enamido)propanamido)propoxy)phenyl)amino)-5-((tetrahydro-2H-pyran-4-yl)amino)pyrazine-2-carboxamide]
MOLM-13
  IC50: 10 to 100 nM
MV-4-11
  IC50: 1 to 10 nM
K-562
  IC50: > 500 nM

## CCc1nc(C(N)=O)c(Nc2cccc(OCCCNC(=O)[C@H](C)N(C)C(=O)/C=C/CN(C)C)c2)nc1C [Compound 126, (S,E)-3-((3-(3-(2-(4-(dimethylamino)-N-methylbut-2-enamido)propanamido)propoxy)phenyl)amino)-6-ethyl-5-methylpyrazine-2-carboxamide]
MOLM-13
  IC50: 10 to 100 nM
MV-4-11
  IC50: 1 to 10 nM
K-562
  IC50: > 500 nM

## CCc1nc(C(N)=O)c(Nc2cccc(OCCCNC(=O)[C@H](C)N(C)C(=O)/C=C/CN(C)C)c2)nc1NC1CCOCC1 [Compound 37, 3-[3-[3-[[(2S)-2-[[(E)-4-(dimethylamino)but-2-enoyl]-methyl-amino]propanoyl]amino]propoxy]anilino]-6-ethyl-5-(tetrahydropyran-4-ylamino)pyrazine-2-carboxamide]
MOLM-13
  IC50: < 1 nM
MV-4-11
  IC50: < 1 nM
K-562
  IC50: > 500 nM
